Source: patent US8802638B1, “Flavonoid treatment of glycogen synthase kinase-based disease” (University of South Florida, priority 2007, dated 2014)

How the values were obtained:
SweAPP N2a cells = test: APP proteolysis (Aβ ELISA, IP, APP CTF Western blot) in SweAPP N2a cells; type: cell-based, murine
Method: (§1) Cultured cells or mouse brain were lysed in ice-cold lysis buffer described above, and an aliquot corresponding to 50 μg of total protein was electrophoretically separated using 12% Tris-HCl or 16.5% Tris-tricine gels. Electrophoresed proteins were then transferred to PVDF membranes, washed in dH2O, and blocked for 1 hr at ambient temperature in Tris-buffered saline (TBS; Bio-Rad) containing 5% (w/v) non-fat dry milk. After blocking, membranes were hybridized for 1 hr at ambient temperature with various primary antibodies. Membranes were then washed 3× for 5 min each in dH2O and incubated for 1 hr at ambient temperature with the appropriate HRP-conjugated secondary antibody (1:1,000). Antibodies were obtained against the amino-terminus and carboxyl-terminus of PS1 (Chemicon, Temecula, Calif.), amino-terminus and carboxyl-terminus of APP (22C11), actin (Roche, Basel, Switzerland), Aβ (6E10, 48G) (Signet Laboratories, Dedham, Mass.), phosphor-GSK3α (ser^21, clone BK202) (Upstate, Lake Placid, N.Y.), phospho-GSK3α/β (pTyr^279/216) (Sigma), phospho-GSK-3β (Ser^9) (Sigma) and total GSK-3α/β (Sigma). All antibodies were diluted in TBS containing 5% (w/v) of non-fat dry milk. Blots were developed using the luminol reagent (Pierce Biotechnology). Densitometric analysis was done as previously described using a FluorS Multiimager with Quantity One™ software (39). Immunoprecipitation was performed for detection of sAPP-α, sAPP-β and Aβ by incubating 200 μg of total protein of each sample with various sequential combinations of 6E10 (1:100) and/or 22C11 (1:100) antibodies overnight with gentle rocking at 4° C., and 10 μL of 50% protein A-Sepharose beads were then added to the sample (1:10; Sigma) prior to gentle rocking for an additional 4 hrs at 4° C. Following washes with 1× cell lysis buffer, samples were subjected to Western blot as described above. Antibodies used for Western blot included the APP-carboxyl-terminal antibody (1:50)), amino-terminal APP antibody (clone 22C11), or 6E10 (1:1,000), or actin antibody (1:1,500; as an internal reference control). γ-secretase activity was quantified in cell lysates using available kits based on secretase-specific peptides conjugated to fluorogenic reporter molecules.
SweAPP N2a cells and primary neuronal cells derived from Tg2576 mice were treated with varying doses of luteolin to examine luteolin's effect on APP proteolysis. Cellular extracts were collected and analyzed using immunoprecipitation (IP), Western blot, and ELISA. […] See FIGS. 1 through 2(B) and 5 through 6(B). SweAPP N2a and primary Tg2576-derived neuronal cells CTF profiles were analyzed following luteolin treatment to determine at which level luteolin impacts amyloid processing.

[1] = tested on: primary neuronal cells derived from Tg2576 mice; test: APP proteolysis (Aβ ELISA, IP, APP CTF Western blot) in Tg2576 mouse-derived primary neuronal cells; type: cell-based; details: 12 hrs
Method: as §1, with “Blots were developed using the luminol reagent (Pierce Biotechnology).” left out, “Immunoprecipitation was performed for detection of sAPP-α, sAPP-β and Aβ by incubating 200 μg of total protein of each sample with various sequential combinations of 6E10 (1:100) and/or 22C11 (1:100) antibodies overnight with gentle rocking at 4° C., and 10 μL of 50% protein A-Sepharose beads were then added to the sample (1:10; Sigma) prior to gentle rocking for an additional 4 hrs at 4° C. Following washes with 1× cell lysis buffer, samples were subjected to Western blot as described above.” left out
SweAPP N2a cells and primary neuronal cells derived from Tg2576 mice were treated with varying doses of luteolin to examine luteolin's effect on APP proteolysis. Cellular extracts were collected and analyzed using immunoprecipitation (IP), Western blot, and ELISA. […] SweAPP N2a and primary Tg2576-derived neuronal cells CTF profiles were analyzed following luteolin treatment to determine at which level luteolin impacts amyloid processing.

Tg2576 mice = test: cerebral Aβ levels by ELISA in luteolin-treated Tg2576 mice; type: in vivo; details: 20 mg/kg i.p. daily for 30 days
Method: (§2) Sixteen (8♂/8♀) Tg2576 mice (Taconic, Germantown, N.Y.) were used; 8 mice received luteolin, and the other 8 received phosphate buffered saline (PBS). Beginning at 8 months of age, Tg2576 mice were intraperitoneally injected with luteolin (20 mg/kg) or PBS daily for 30 days based on previously described methods. These mice were then sacrificed at 9 months of age for analyses of Aβ levels and Aβ load in the brain according to previously described methods. Animals were housed and maintained in the College of Medicine Animal Facility at the University of South Florida (USF), and all experiments were in compliance with protocols approved by the USF Institutional Animal Care and Use Committee.
Eight month-old Tg2576 mice were treated with 20 mg/kg luteolin administered by daily intraperitoneal injection for 30 days to validate the above findings in vivo. […] Phospho-GSK-3α/β-positive neuronal cells were examined under bright-field using an Olympus BX-51 microscope.
Brain homogenates were immunoprecipitated by PS1 antibody and probed for APP to confirm the proposed mechanism. […] To assess this decrease, ELISA was conducted on both soluble and insoluble Aβ1-40, 42.

GSK-3α/β = test: GSK-3 activation in brain homogenates of luteolin-treated Tg2576 mice; type: in vivo; details: 20 mg/kg i.p. daily for 30 days
Method: as §2
(§3) Cultured cells or mouse brain were lysed in ice-cold lysis buffer described above, and an aliquot corresponding to 50 μg of total protein was electrophoretically separated using 12% Tris-HCl or 16.5% Tris-tricine gels. […] Densitometric analysis was done as previously described using a FluorS Multiimager with Quantity One™ software (39). […] Antibodies used for Western blot included the APP-carboxyl-terminal antibody (1:50)), amino-terminal APP antibody (clone 22C11), or 6E10 (1:1,000), or actin antibody (1:1,500; as an internal reference control). γ-secretase activity was quantified in cell lysates using available kits based on secretase-specific peptides conjugated to fluorogenic reporter molecules. […]

PS1 = PS1 processing and PS1-APP association in brain homogenates of luteolin-treated Tg2576 mice; type: in vivo; details: 20 mg/kg i.p. daily for 30 days
Method: as §2
as §3, with “gels. Electrophoresed proteins were then transferred to PVDF membranes, washed in dH2O, and blocked for 1 hr at ambient temperature in Tris-buffered saline (TBS; Bio-Rad) containing 5% (w/v) non-fat dry milk. After blocking, membranes were hybridized for 1 hr at ambient temperature with various primary antibodies. Membranes were then washed 3× for 5 min each in dH2O and incubated for 1 hr at ambient temperature with the appropriate HRP-conjugated secondary antibody (1:1,000).” for “gels.”
Brain homogenates from these mice were subsequently analyzed by immunoprecipitation, Western blot, and ELISA, seen in FIGS. 28(A) through 37. […]

β-catenin = β-catenin after luteolin treatment; type: cell-based; details: data not shown

O=c1cc(-c2ccc(O)c(O)c2)oc2cc(O)cc(O)c12 [luteolin]
accumulation of both α and β CTFs (increase over control) (SweAPP N2a cells; dose dependent, 12 hrs, Western blot densitometry, SweAPP N2a cells): 2-3 fold | Aβ1-40, 42 peptide generation abrogated (SweAPP N2a cells; luteolin 20 μM, 12 hrs, SweAPP N2a cells): > 70% | Aβ1-40, 42 peptide generation abrogated (SweAPP N2a cells; luteolin 40 μM, 12 hrs, SweAPP N2a cells): > 85% | Aβ1-40, 42 production (SweAPP N2a cells; result in words, ELISA/IP/Western blot): effectively reduced Aβ1-40, 42 production in either cell line in a dose dependent manner | accumulation of both α and β CTFs (increase over control) ([1]; dose dependent, Western blot densitometry): 2-3 fold | Aβ1-40, 42 peptide generation abrogated ([1]; luteolin 20 μM): > 70% | Aβ1-40, 42 peptide generation abrogated ([1]; luteolin 40 μM): > 85% | reduction of soluble Aβ1-40 in brain homogenates (Tg2576 mice): 25% | reduction of soluble Aβ1-42 in brain homogenates (Tg2576 mice): 49% | GSK-3α/β active isoforms (ratio of phosphorylated to holo GSK-3) (GSK-3α/β): reduced when compared to control | holo APP expression in brain homogenates (PS1): no significant changes | PS1-APP association in brain homogenates (PS1; IP with PS1 antibody): effectively abolished PS1-APP association | PS1 processing (PS1 CTF to actin ratio) (PS1; brain homogenates): significantly lower levels of PS1 processing | β-catenin (β-catenin): remains unaffected
